Results on 6 compounds are retold here after ChEMBL document CHEMBL5212743, “Selectivity Literature for EUbOPEN Chemogenomics Library wave 3” (2023).

Assay [1] deals with D(1A) dopamine receptor (Homo sapiens, UniProt P21728). As to the kind of experiment: Selectivity interaction (GPCR panel (PDSP screen)) EUB0000138c DRD1.
The target in assay [2] is Serine/threonine-protein kinase 10 (Homo sapiens) (UniProt O94804). To be noted: at 1 µM.
Assay [3] deals with Phosphatidylinositol 4-phosphate 5-kinase type-1 gamma (Homo sapiens) (UniProt O60331). As to the kind of experiment: Selectivity interaction (KinomeScan (DiscoverX)) EUB0000698a PIP5K1C. To be noted: at 10 µM.
In assay [4] the target is STE20-like serine/threonine-protein kinase (Homo sapiens, UniProt Q9H2G2). As to the kind of experiment: Selectivity interaction (KinomeScan (DiscoverX)) EUB0000698a SLK. The following applies: at 10 µM.
The target of assay [5] is Serine/threonine-protein kinase 17A (Homo sapiens) (UniProt Q9UEE5). The assay can be described thus: Selectivity interaction (KinomeScan (DiscoverX)) EUB0000305b STK17A. To be noted: at 100 nM.
In assay [6] the test system is Phosphatidylinositol 4,5-bisphosphate 3-kinase catalytic subunit alpha isoform (Homo sapiens), P42336 [Q546K]. The assay can be described thus: Selectivity interaction (KinomeScan (DiscoverX)) EUB0000305b PIK3CA. To be noted: CellTiter-Glo assay (Promega, proliferation in ACHN cells): IC50 = […] nM, https://www.sgc-ffm.uni-frankfurt.de/#!specificprobeove, at 100 nM. (Cellular ATP, detected with luciferase, serves as a proxy for viable cell number.)

Assay [7] deals with Serine/threonine-protein kinase PLK3 (Homo sapiens, UniProt Q9H4B4). As to the kind of experiment: Selectivity interaction (KinomeScan (DiscoverX)) EUB0000702a PLK3. The following applies: at 1 µM.
The target of assay [8] is Serine/threonine-protein kinase RIO1 (Homo sapiens) (UniProt Q9BRS2). As to the kind of experiment: Selectivity interaction (KinomeScan (DiscoverX)) EUB0000702a RIOK1. The following applies: at 1 µM.
The target of assay [9] is T1, Serine/threonine-protein kinase ULK2 (Homo sapiens) (UniProt Q8IYT8).
T1 sequence (whole entry): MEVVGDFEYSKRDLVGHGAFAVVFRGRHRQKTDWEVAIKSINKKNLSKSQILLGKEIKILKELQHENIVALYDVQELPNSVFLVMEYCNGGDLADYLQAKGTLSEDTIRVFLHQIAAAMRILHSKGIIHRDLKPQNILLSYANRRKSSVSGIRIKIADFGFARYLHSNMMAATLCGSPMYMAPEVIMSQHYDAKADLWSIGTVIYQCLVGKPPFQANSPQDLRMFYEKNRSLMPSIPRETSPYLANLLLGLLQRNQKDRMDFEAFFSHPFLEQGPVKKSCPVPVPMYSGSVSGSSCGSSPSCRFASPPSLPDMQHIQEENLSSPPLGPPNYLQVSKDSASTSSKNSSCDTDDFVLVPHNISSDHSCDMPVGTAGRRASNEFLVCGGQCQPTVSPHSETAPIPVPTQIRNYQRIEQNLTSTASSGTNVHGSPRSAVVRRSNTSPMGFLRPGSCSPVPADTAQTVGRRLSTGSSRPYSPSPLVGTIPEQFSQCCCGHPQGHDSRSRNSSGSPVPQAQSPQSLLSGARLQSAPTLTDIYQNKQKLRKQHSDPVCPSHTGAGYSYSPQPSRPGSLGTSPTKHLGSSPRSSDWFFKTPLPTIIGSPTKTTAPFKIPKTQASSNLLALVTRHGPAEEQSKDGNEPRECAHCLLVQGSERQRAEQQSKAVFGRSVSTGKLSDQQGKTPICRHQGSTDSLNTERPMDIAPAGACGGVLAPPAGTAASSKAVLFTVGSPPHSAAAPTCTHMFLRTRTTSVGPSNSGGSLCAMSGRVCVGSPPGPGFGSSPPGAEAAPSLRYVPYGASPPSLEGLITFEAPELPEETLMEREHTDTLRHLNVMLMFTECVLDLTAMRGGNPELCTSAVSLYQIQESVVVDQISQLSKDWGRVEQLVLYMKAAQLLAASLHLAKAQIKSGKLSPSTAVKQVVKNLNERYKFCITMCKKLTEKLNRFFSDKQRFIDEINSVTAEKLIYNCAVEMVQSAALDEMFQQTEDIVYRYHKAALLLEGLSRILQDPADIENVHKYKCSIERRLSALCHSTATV
The assay can be described thus: Selectivity interaction (KinomeScan (DiscoverX)) EUB0000702a ULK2. To be noted: at 1 µM.

Assay [10] has as its target G protein-coupled receptor kinase 4 (Homo sapiens) (UniProt P32298). As to the kind of experiment: Selectivity interaction (KinomeScan (DiscoverX)) EUB0000702a GRK4. To be noted: at 1 µM.
Assay [11] concerns the target Serine/threonine-protein kinase TAO1 (Homo sapiens) (UniProt Q7L7X3). The assay can be described thus: Selectivity interaction (KinomeScan (DiscoverX)) EUB0000702a TAOK1. To be noted: at 1 µM.
Assay [12] concerns the target T2, Alpha-1A adrenergic receptor (Homo sapiens) (UniProt P35348).
T2 sequence (whole entry): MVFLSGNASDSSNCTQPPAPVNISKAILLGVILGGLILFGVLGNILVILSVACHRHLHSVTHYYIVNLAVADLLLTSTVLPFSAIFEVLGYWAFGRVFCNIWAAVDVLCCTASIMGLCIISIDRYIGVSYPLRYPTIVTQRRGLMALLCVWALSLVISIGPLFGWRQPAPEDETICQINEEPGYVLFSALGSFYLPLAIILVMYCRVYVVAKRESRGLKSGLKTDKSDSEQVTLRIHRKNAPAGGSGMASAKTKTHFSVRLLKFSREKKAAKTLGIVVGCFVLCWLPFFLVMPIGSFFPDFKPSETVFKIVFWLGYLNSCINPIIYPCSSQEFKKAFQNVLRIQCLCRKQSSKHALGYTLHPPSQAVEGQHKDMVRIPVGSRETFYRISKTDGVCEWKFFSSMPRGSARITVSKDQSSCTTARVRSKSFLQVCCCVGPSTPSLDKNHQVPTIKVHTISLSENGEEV
As to the kind of experiment: Selectivity interaction (SafetyScreen44™ (Eurofins, panel of GPCRS, ion channels, transporters) ) EUB0000169b ADRA1A. To be noted: at 10 µM.

The target of assay [13] is cAMP-dependent protein kinase catalytic subunit alpha (Homo sapiens, UniProt P17612). As to the kind of experiment: Selectivity interaction (Kinase panel (University of Dundee)) EUB0000169b PRKACA. The following applies: at 10 µM.
The target in assay [14] is Ribosomal protein S6 kinase alpha-1 (Homo sapiens) (UniProt Q15418). To be noted: at 10 µM.
Assay [15] addresses Mitogen-activated protein kinase 1 (Homo sapiens, UniProt P28482). The assay can be described thus: Selectivity interaction (Kinase panel (University of Dundee)) EUB0000169b MAPK1. To be noted: at 10 µM.
The target of assay [16] is Dual specificity tyrosine-phosphorylation-regulated kinase 1A (Homo sapiens, UniProt Q13627). The assay can be described thus: Selectivity interaction (Kinase panel (University of Dundee)) EUB0000169b DYRK1A. The following applies: at 10 µM.
The target in assay [17] is Tyrosine-protein kinase CSK (Homo sapiens) (UniProt P41240). The assay can be described thus: Selectivity interaction (Kinase panel (University of Dundee)) EUB0000169b CSK. The following applies: at 10 µM.
For assay [18], the system named is ALK tyrosine kinase receptor (Homo sapiens), Q9UM73 [C1156Y]. The assay can be described thus: Selectivity interaction (KinomeScan (DiscoverX)) EUB0000169b ALK. The following applies: at 1 µM.
In assay [19] the target is MAP kinase-activated protein kinase 5 (Homo sapiens) (UniProt Q8IW41). The following applies: at 10 µM.
The target in assay [20] is Casein kinase I isoform alpha (Homo sapiens) (UniProt P48729). To be noted: at 10 µM.

pKi: −log10 of the molar value. Bounds are passed on as bounds.

Sequence of Serine/threonine-protein kinase RIO1 (Homo sapiens) (Q9BRS2 whole entry): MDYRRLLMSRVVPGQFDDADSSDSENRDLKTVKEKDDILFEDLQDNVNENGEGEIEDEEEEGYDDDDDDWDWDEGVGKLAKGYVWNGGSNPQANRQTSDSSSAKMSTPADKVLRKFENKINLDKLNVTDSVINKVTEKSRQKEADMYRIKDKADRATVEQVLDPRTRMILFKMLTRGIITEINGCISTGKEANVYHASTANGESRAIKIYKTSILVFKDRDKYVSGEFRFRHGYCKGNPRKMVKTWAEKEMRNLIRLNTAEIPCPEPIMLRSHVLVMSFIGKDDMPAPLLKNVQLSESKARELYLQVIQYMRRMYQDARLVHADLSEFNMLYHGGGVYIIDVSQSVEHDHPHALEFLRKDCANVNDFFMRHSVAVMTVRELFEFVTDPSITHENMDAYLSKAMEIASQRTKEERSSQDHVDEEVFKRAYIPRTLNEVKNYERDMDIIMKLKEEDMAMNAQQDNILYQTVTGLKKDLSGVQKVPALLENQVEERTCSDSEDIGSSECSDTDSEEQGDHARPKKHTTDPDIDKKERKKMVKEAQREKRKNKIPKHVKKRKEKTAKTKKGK
Sequence of Casein kinase I isoform alpha (Homo sapiens) (P48729 2-337 limits assumed): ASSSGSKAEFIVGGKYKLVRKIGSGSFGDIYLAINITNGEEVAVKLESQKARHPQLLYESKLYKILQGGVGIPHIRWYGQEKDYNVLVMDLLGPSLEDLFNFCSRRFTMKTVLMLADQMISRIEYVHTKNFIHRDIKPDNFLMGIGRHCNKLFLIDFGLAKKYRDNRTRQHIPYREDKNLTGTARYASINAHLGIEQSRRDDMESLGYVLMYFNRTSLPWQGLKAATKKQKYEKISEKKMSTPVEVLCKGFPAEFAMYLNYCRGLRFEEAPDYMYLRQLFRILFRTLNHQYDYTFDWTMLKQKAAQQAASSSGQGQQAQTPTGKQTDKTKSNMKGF
Sequence of Tyrosine-protein kinase CSK (Homo sapiens) (P41240 2-450 limits assumed): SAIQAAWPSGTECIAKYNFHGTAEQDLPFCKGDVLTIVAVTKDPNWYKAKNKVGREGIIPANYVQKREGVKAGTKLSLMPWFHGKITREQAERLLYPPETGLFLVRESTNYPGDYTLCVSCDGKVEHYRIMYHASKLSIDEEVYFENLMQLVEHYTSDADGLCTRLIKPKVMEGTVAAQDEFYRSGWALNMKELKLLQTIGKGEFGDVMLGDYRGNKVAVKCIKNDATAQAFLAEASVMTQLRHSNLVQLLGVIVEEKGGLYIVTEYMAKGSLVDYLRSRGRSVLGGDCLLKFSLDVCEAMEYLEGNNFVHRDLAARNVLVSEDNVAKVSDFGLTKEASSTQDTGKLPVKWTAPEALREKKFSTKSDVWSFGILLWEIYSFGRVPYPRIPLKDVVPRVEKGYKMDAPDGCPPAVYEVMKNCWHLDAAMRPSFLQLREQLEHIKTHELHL
Sequence of Serine/threonine-protein kinase TAO1 (Homo sapiens) (Q7L7X3 whole entry): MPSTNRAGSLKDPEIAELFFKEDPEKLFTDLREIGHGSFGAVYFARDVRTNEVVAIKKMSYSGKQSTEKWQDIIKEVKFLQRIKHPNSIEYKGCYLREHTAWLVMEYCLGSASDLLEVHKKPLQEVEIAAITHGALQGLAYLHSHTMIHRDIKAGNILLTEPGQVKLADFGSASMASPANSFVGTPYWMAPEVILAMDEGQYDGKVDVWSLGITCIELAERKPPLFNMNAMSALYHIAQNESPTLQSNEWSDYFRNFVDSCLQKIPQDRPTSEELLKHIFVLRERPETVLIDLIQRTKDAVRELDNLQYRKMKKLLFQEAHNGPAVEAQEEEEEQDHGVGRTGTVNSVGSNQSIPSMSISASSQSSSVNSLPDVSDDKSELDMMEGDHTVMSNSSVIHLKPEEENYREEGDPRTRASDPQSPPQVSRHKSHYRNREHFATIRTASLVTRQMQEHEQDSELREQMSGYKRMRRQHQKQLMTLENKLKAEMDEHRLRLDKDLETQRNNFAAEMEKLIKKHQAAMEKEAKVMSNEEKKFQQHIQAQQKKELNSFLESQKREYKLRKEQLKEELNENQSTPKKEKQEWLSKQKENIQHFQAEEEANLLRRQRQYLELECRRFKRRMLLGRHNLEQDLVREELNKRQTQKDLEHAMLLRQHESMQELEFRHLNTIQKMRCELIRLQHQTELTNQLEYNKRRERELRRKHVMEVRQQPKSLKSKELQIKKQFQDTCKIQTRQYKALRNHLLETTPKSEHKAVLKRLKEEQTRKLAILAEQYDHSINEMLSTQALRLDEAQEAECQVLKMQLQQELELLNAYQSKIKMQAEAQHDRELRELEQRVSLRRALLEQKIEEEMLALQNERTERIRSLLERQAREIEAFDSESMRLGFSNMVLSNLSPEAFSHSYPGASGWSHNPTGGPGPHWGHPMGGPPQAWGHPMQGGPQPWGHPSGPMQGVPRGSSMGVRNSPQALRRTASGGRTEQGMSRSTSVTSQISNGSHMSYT
Sequence of D(1A) dopamine receptor (P21728 whole entry): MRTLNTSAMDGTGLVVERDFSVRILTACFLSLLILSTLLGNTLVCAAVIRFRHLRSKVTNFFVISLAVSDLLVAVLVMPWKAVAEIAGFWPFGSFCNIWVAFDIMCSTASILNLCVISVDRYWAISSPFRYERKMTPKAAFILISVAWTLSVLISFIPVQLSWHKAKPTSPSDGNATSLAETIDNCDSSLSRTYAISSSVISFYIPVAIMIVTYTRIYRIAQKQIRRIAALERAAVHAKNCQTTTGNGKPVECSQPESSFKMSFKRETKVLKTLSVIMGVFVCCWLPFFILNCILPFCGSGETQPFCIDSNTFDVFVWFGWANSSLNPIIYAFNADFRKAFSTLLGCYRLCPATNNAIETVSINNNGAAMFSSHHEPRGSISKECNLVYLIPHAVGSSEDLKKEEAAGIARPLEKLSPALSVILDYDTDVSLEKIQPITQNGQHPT
Sequence of Serine/threonine-protein kinase PLK3 (Q9H4B4 whole entry, looked up): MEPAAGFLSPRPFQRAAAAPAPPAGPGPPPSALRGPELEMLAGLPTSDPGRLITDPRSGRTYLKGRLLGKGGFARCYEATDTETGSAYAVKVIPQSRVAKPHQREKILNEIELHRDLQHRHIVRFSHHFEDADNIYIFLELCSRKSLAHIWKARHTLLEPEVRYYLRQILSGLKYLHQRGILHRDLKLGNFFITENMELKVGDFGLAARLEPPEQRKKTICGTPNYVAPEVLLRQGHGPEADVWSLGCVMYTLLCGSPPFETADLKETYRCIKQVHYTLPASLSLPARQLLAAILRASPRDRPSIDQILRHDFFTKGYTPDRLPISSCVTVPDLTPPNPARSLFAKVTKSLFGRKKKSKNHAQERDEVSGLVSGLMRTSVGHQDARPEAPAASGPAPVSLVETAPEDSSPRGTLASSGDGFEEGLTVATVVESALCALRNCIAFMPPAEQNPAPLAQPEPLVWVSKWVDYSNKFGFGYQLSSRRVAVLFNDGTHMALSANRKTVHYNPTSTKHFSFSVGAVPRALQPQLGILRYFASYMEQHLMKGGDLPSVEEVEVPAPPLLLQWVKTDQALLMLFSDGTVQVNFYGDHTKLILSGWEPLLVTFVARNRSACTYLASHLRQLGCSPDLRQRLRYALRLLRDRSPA
Sequence of Serine/threonine-protein kinase 17A (Homo sapiens) (Q9UEE5 whole entry, canonical isoform): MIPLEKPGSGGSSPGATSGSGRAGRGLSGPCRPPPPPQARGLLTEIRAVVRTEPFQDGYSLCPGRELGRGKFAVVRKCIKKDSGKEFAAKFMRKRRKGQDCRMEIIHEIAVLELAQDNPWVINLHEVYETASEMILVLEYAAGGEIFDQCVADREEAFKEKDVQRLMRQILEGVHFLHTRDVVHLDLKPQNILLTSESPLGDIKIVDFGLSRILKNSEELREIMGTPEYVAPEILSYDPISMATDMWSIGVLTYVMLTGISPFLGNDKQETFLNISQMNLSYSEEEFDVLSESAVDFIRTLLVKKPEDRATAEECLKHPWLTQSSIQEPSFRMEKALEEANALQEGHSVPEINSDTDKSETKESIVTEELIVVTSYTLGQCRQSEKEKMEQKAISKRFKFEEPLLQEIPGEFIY
Sequence of Mitogen-activated protein kinase 1 (P28482 whole entry): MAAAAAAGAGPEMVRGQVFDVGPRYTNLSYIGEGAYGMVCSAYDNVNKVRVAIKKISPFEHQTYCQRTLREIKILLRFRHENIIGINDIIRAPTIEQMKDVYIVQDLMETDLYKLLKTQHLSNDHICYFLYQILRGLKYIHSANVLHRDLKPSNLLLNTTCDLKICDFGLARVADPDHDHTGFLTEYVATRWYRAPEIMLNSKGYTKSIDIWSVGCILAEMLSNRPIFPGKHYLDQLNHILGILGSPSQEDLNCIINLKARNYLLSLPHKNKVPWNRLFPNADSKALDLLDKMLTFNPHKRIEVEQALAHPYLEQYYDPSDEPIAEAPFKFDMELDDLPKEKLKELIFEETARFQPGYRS
Sequence of G protein-coupled receptor kinase 4 (Homo sapiens) (P32298 whole entry, looked up): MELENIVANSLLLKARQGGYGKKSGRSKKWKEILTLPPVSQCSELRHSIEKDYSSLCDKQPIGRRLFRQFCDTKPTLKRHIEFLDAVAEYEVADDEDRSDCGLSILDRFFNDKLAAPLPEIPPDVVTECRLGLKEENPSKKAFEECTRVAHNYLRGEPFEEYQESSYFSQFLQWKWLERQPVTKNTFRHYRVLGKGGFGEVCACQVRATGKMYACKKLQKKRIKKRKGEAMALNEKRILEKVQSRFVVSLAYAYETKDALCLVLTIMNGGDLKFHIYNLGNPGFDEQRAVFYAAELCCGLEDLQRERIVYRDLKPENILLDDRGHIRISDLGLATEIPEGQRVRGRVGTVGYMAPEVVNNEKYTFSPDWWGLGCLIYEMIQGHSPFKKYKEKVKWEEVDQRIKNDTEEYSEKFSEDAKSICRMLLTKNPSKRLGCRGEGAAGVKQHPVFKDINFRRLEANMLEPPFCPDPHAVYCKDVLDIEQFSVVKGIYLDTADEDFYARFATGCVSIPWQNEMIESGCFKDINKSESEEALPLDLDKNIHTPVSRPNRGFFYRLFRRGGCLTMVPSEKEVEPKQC

For the compound `CNC(=O)c1ccc(Nc2ncc(C(F)(F)F)c(NCc3nccnc3N(C)S(C)(=O)=O)n2)cc1` [DEFACTINIB], the pKi – broadly, the Ki on a negative log10 scale, so that one unit is a factor of ten – in assay [1] was less than 5.00.
Turning to `CCOc1cn(-c2ccc(F)cc2C)nc1C(=O)Nc1ccc(Oc2ccnc3cc(OC)c(OC)cc23)c(F)c1`, in assay [2], the % of control was less than 10%.
On to `COc1cc2ncn(-c3cc(OCc4ccccc4C(F)(F)F)c(C(N)=O)s3)c2cc1OC` [GW843682X], for which the % of control in [3] is 10%; in [4], 0.3%.
As for `C[C@H](c1ccnc(Nc2nc3ccc(-c4cc(N(C)C)ncn4)cc3[nH]2)c1)N1CCN(C(=O)CC(F)(F)F)CC1` [BAY-985], the % of control in [5] amounted to 40%; in [6], 45%.
`CN(c1ccnc(CNc2nc(Nc3ccc4c(c3)CC(=O)N4)ncc2C(F)(F)F)n1)S(C)(=O)=O` [PF-00911705]: the % of control worked out at 1.7% in assay [7]; 9.7% in [8]; 5.4% in assay [9]; 10% in assay [10]; 3.7% in assay [11].
As to `CC[C@@H]1C(=O)N(C)c2cnc(Nc3ccc(C(=O)NC4CCN(C)CC4)cc3OC)nc2N1C1CCCC1`, the % of control in assay [12] is 13%; in assay [13] it was 100%; in assay [14], 13.8%; in [15], 93%; in [16] it was 72%; in assay [17], 99%. Also, the % of control was found to be 0.3% in assay [18], 86% in assay [19] and 56% in assay [20].
